In US7645740B2, “Peptide sequence found in Laminin 5 for treating skin impairments” (Laboratoires d'Anjou Centre National de la Recherche …, priority 2004, dated 2010):

What was measured:
[1] = system: HT1080 cells (human fibrosarcoma); experiment: Cell adhesion test to immobilized peptides, HT1080; assay type: cell-based
Method: Dose-dependent cell adhesion of cell line HT1080 to various peptides 1, 2 and 3. The peptides were immobilized in 96-well plates at the concentrations given on the abscissa. 8×10^4 cells were deposited in each well and plates were incubated at 37° C. for 1 hour. After washing, attached cells were fixed and cell adhesion was measured as described in the methodology section.
Dose-dependent cell adhesion of HT1080 cells to various peptide TALRIRATYGEY (SEQ ID NO. 1). The peptides were immobilized in 96-well plates in the quantities given on the abscissa. 8×10^4 cells and 15×10^4 cells were deposited in each well and plates were incubated at 37° C. for 1 hour. After washing, attached cells were fixed and cell adhesion was measured as described in the methodology section. Cells were observed by phase contrast microscopy then photographed. Bar =50 μm
Peptides 1, 2 and 3 were used for the cell adhesion experiments. A range of 7 decreasing concentrations (100 micrograms/ml, 50 micrograms/ml, 25 micrograms/ml, 12.5 micrograms/ml, 6.25 micrograms/ml, 3.125 micrograms/ml and 1.562 micrograms/ml) was made up by successive dilution in PBS (Phosphate Buffer Saline, KH2PO4 1.54 mM; Na2HPO4 1.42 mM; NaCl-131 mM) using a starting solution at a concentration of 1 mg/ml. These solutions were immediately distributed onto a 96-well culture plate (Greinher, Dutscher, Brumath, France) at a rate of 100 μl per well. Plates were then placed at +4° C. for 16 to 18 hours. The solutions were then removed by turning the plates and each well was saturated with a 1% PBS-BSA solution (bovine serum albumin). Three additional wells without the substrate underwent the same treatment and were used as blanks.
Epithelial cells were detached from the culture dishes using a trypsin/EDAT solution (0.05-0.02%) then suspended in DMEM medium without additives for the cell lines and in KBM-2 without additive for human keratinocytes. The number of seeded cells per well is given in the graphs (50,000 to 100,000 cells per well).
After cell seeding, the multi-well plates were placed in an incubator at 37° C. under 5% CO2. After incubation for 30 to 60 minutes, cells were observed under a phase contrast microscope in order to verify that the test was conducted correctly. The adhesion medium was then removed and each well was washed in a sterile PBS solution to remove non-adhering cells. The remaining cells, attached to the substrate, were then fixed using a solution of 1% glutaraldehyde in PBS for 15 minutes. The glutaraldehyde solution as removed and the cells were stained with a crystal violet solution diluted to 1% in distilled water for 30 minutes.
After rinsing in water several times, cells were permeabilized by means of a 0.02% triton solution for 15 minutes in order to solubilize the crystal violet. Absorbances were read at 570 nm using an ELISA plate reader (MR500, Dynatech, Guernsey, Channel Islands). Each experimental point was carried out in triplicate. The blank value represented the mean absorbance of 3 control wells (BSA). […] We then calculated the mean for the three absorbance values for each of the triplicate samples.
The results are presented in the form of a graph with the absorbance values on the ordinate and the various substrate concentrations on the abscissa. […]
A second approach was taken in order to determine the minimum quantity of active peptide and the number of adhering cells was increased in order to obtain a confluent cell network. […]

HBL100 cells = experiment: Cell proliferation test (XTT), HBL100; assay type: cell-based, human; conditions: HBL100, peptide 0.5% and 1%, serum-free medium, 5th hour
Method: HT1080 cells (A) and HBL100 cells (B) were seeded in 96-well plates at a rate of 10,000 cells per well. After 24 hours, the culture medium was removed and replaced with serum-free medium containing the peptide quantities given in the graphs and reagent XTT. The plates were then placed in the incubator at 37° C. and absorbance readings were taken at 1 h, 2 h, 3 h, 4 h and 5 h. Peptide-free controls were carried out on the same plate.
The effect of the peptide on cell proliferation was analysed with the aid of a calorimetric test (Cell Proliferation Kit XTT, Roche Diagnostics, Meylan, France) on the cells use for the cell adhesion test, i.e. HT1080, A431, HBL100 cells and normal human keratinocytes from young and elderly individuals.
The chemical reaction used in the test is based on the production of NADPH by living cells, leading to the reduction of yellow tetrazolium XTT salts to orange formazan salts. Absorbance was measured at 490 nm using an ELISA plate reader. Cells were seeded in 96-well plates at a rate of 10,000 cells per well (6 wells/condition) in KBM-2 culture medium. After 24 hours in culture at 37° C. with 5% CO2, the culture medium was removed and replaced with serum-free medium containing the peptide quantities given in the graphs and the test reagent. The plates were then placed in the incubator at 37° C. and absorbance readings were taken at 1 h, 2 h, 3 h, 4 h and 5 h. […]

TALRIRATYGEY (Human laminin 5) [Peptide 1]
cell adhesion to immobilized peptide ([1]; HT1080, 0 to 10 micrograms immobilized peptide, 8×10^4 cells per well, 1 hour 37° C., absorbance 570 nm): led to cell adhesion
immobilized peptide quantity at which adhesion occurred ([1]; HT1080, FIG. 3): 0.15 micrograms
immobilized peptide quantity at which maximum adhesion was achieved ([1]; HT1080, FIG. 3): 0.15 micrograms
mean increase in cell proliferation compared to the control (HBL100 cells): 8%
